The record followed here is ChEMBL document CHEMBL1201862, “PubChem BioAssay data set” (2004).

Common to all, as to test: NCI anticancer screen, dose series, 48 h
Experiment [1] concerns A549.
In experiment [2] the test system is ACHN.
Experiment [3] relates to CCRF-CEM.
Experiment [4] deals with HCT-116.
For experiment [5], the system named is HL-60.
The subject of experiment [6] is HOP-62.
Experiment [7] relates to HT-29.
Experiment [8] deals with KM12.
The test system of experiment [9] is NCI-H226.
The subject of experiment [10] is NCI-H522.
Experiment [11] deals with OVCAR-4.
Experiment [12] concerns OVCAR-5.
Experiment [13] relates to RPMI-8226.
Experiment [14] relates to SF-539.
Experiment [15] has as its system SK-MEL-28.
For experiment [16], the system named is SK-MEL-2.
Experiment [17] relates to SK-MEL-5.
For experiment [18], the system named is SW-620.
In experiment [19] the test system is UO-31.
The subject of experiment [20] is K562.

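Values below derive from 48-hour exposures of cells grown in 96-well plates, with endpoints linearly interpolated between the two concentrations bracketing the appropriate inhibition level. GI50 = concentration required for 50% inhibition of growth.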 Calls of active or inactive are those of the source. No stated cut-off is given here; in the data, active = GI50 up to about 1.1 µM and inactive = higher.

With `Oc1[nH]c(Nc2cccc(CC(F)(F)F)c2)nc2ncnc1-2`, the GI50 in [1], in [2], in experiment [3], in experiment [4], in experiment [5] and in [6] was > 100 µM (inactive) in each case. The GI50 in experiment [7], in experiment [8], in [9], in experiment [10], in experiment [11] and in experiment [12] was > 100 µM (inactive) in each case. Also, the GI50 in experiment [13], in experiment [14], in experiment [15], in [16], in [17] and in [18] was > 100 µM (inactive) in each case. The GI50 in experiment [19] is > 100 µM (inactive).
As for `O=[N+]([O-])/C(C(Cl)=C(Cl)Cl)=C1\Nc2ccccc2O1`, the GI50 in [1] was 37.7 µM (inactive); in experiment [2], 35.8 µM (inactive); in [3], 19.5 µM (inactive); in experiment [4], 51.6 µM (inactive); in [5], 28.8 µM (inactive); in experiment [6], 47.4 µM (inactive). The GI50 is > 100 µM (inactive) in [7]; > 100 µM (inactive) in experiment [20]; 90.6 µM (inactive) in experiment [8]; 27.5 µM (inactive) in [9]; 27.2 µM (inactive) in experiment [10]; 33.8 µM (inactive) in experiment [11]. Further, the GI50 in experiment [12] is > 100 µM (inactive); in [13] it was 24.3 µM (inactive); in experiment [14], 19.9 µM (inactive); in [15] it was > 100 µM (inactive); in experiment [16] it was > 100 µM (inactive); in experiment [17], > 100 µM (inactive). Besides, the GI50 in experiment [18] is > 100 µM (inactive); in [19] it was 14.5 µM (inactive).
Consider `Cc1[nH]c(-c2ccccc2)c(O)c1C(=O)OC1CC(C)CCC1C(C)C` (configuration not stated), for which the GI50 in experiment [1] was 13.4 µM (inactive); in experiment [2], 16.4 µM (inactive); in [3] it was 11 µM (inactive); in experiment [4], 14.9 µM (inactive); in [5], 16.4 µM (inactive); in experiment [6], 15.3 µM (inactive). Further, the GI50 in experiment [7] is 14.4 µM (inactive); in [20], 50 µM (inactive); in experiment [8], 13.4 µM (inactive); in experiment [9], 16.9 µM (inactive); in experiment [10] it was 13.3 µM (inactive); in experiment [11] it was 13.4 µM (inactive). Also, the GI50 in experiment [12] is 14.2 µM (inactive); in [13] it was 15.3 µM (inactive); in experiment [14], 16.2 µM (inactive); in [15], 16.3 µM (inactive); in [16], 14.3 µM (inactive); in experiment [17] it was 16.6 µM (inactive). The GI50 was 15.7 µM (inactive) in experiment [18] and 13.3 µM (inactive) in [19].
In the case of `COn1oc(=O)c2ccccc21`, the GI50 in experiment [1], in experiment [2], in [3], in [4], in experiment [5] and in experiment [6] was > 100 µM (inactive) throughout. Besides, the GI50 in [7] was > 100 µM (inactive); in experiment [20], > 100 µM (inactive); in experiment [8] it was > 100 µM (inactive); in experiment [9] it was > 100 µM (inactive); in [10], 11.5 µM (inactive); in experiment [11], > 100 µM (inactive). Moreover, the GI50 in experiment [12], in [13], in [14], in experiment [15], in [16] and in [17] was > 100 µM (inactive) each time. Besides, the GI50 in experiment [18] and in [19] was > 100 µM (inactive) throughout.
Turning to `O=C(NC(Cc1ccc(I)cc1)C(=O)O)c1cccc(Br)c1` (configuration not stated), the GI50 in [1] was > 100 µM (inactive); in [3], 69.2 µM (inactive); in [4], > 100 µM (inactive); in experiment [5], > 100 µM (inactive); in experiment [6] it was 67.3 µM (inactive); in [7], > 100 µM (inactive). Moreover, the GI50 in experiment [20] was 48.6 µM (inactive); in experiment [8], 55.1 µM (inactive); in experiment [9], > 100 µM (inactive); in experiment [10], > 61.1 µM (inactive); in experiment [11] it was > 92.9 µM (inactive); in experiment [12] it was > 100 µM (inactive). For the same compound, the GI50 in experiment [13] was 47.8 µM (inactive); in [14], 84.1 µM (inactive); in [15], 49.8 µM (inactive); in [16] it was > 80.7 µM (inactive); in [17], > 100 µM (inactive); in experiment [18], > 100 µM (inactive). Besides, in experiment [19], the GI50 was > 100 µM (inactive).
As for `CON(C)c1nc(N)c(C#N)c(C#N)c1C#N`, the GI50 in [1] was > 10 µM (inactive); in experiment [2], > 10 µM (inactive); in [3], 4.02 µM (inactive); in experiment [4], > 10 µM (inactive); in experiment [5], 4.16 µM (inactive); in [6], > 10 µM (inactive). For the same compound, the GI50 in experiment [7], in experiment [8], in experiment [9], in experiment [10], in experiment [11] and in experiment [12] was > 10 µM (inactive) in each case. Also, the GI50 in [13], in [14], in experiment [15], in experiment [16], in experiment [17] and in experiment [18] was > 10 µM (inactive) in each case. In [19], the GI50 was > 10 µM (inactive).
As to `COc1cc2c(cc1OCCCC(=O)Nc1cc(C(=O)Nc3cc(C(=O)Nc4cc(C(=O)NCCCN(C)C)n(C)n4)n(C)n3)n(C)n1)N=CC1CCCN1C2=O` (configuration not stated), the GI50 is 55.2 µM (inactive) in experiment [1]; 13.2 µM (inactive) in experiment [2]; 2.72 µM (inactive) in [3]; 60.8 µM (inactive) in experiment [4]; 6.14 µM (inactive) in experiment [5]; 45.5 µM (inactive) in experiment [6]. Also, the GI50 was 20 µM (inactive) in experiment [7]; 4.43 µM (inactive) in experiment [20]; 21.1 µM (inactive) in [8]; 28.4 µM (inactive) in experiment [9]; 1.69 µM (inactive) in experiment [10]; 16.1 µM (inactive) in experiment [11]. The GI50 is 32.6 µM (inactive) in experiment [12]; 5.74 µM (inactive) in experiment [13]; 26.2 µM (inactive) in experiment [14]; 13.4 µM (inactive) in experiment [15]; 24.8 µM (inactive) in experiment [16]; 19.5 µM (inactive) in experiment [17]. The results for the GI50 in [18] and in experiment [19] were 5.21 µM (inactive) and 4.39 µM (inactive), respectively.
On to `Cc1c(N)nc([C@H](CC(N)=O)NC[C@H](N)C(N)=O)nc1C(=O)N[C@H](C(=O)N[C@H](C)[C@@H](O)CC(=O)N[C@H](C(=O)NC(O[C@@H]1O[C@@H](C)[C@@H](N)[C@@H](O)[C@H]1O)C(O)c1nc(-c2nc(C(=O)NCCCCN)cs2)cs1)[C@@H](C)O)[C@@H](O[C@@H]1O[C@@H](CO)[C@@H](O)[C@H](O)[C@@H]1O[C@H]1O[C@H](CO)[C@@H](O)[C@H](OC(N)=O)[C@@H]1O)c1c[nH]cn1` (some centres not stated), for which the GI50 in experiment [1] is 18.7 µM (inactive); in experiment [2] it was 0.223 µM (active); in [3], > 50 µM (inactive); in experiment [4], 3.86 µM (inactive); in experiment [5], > 44.2 µM (inactive); in [6], 1.98 µM (inactive). Also, the GI50 was > 50 µM (inactive) in experiment [7]; > 50 µM (inactive) in [20]; 49.1 µM (inactive) in experiment [8]; 0.216 µM (active) in experiment [9]; 11.2 µM (inactive) in [10]; > 50 µM (inactive) in experiment [11]. The GI50 in [12] is > 50 µM (inactive); in experiment [13], > 50 µM (inactive); in [14], 0.311 µM (active); in experiment [15], > 50 µM (inactive); in experiment [16] it was > 50 µM (inactive); in experiment [17] it was 12.6 µM (inactive). Besides, the values for the GI50 in experiment [18] and in experiment [19] were > 50 µM (inactive) and 3.78 µM (inactive), respectively.
